{"source": "patent US10543189B2", "about": "“2-acetylnaphtho[2,3-b]furan -4,9-dione for use on treating cancer” (Boston Biomedical, Inc., priority 2013, dated 2020)", "key": {"panel of cancer cells": {"tested_on": "panel of cancer cells", "assay": "In vitro screening of a panel of cancer cells", "format": "cell-based", "text": "Understanding the clinical relevance of the cancer stemness markers and identifying their predictive response to the Compound of the Invention is used herein to assist clinical development by selecting patients that will most likely to derive clinical benefit. In some embodiments, the methods provided herein use one or more well-known cancer stemness marker(s), such as, for example, the expression of p-STAT3 and/or other cancer stem cell related proteins such as β-catenin and NANOG. All these proteins can be easily detected using any of a variety of art-recognized techniques. In some embodiments, the cancer sternness marker is detected with immunohistochemistry with antibodies. Using the archival tissue samples collected from the phase I trial with the Compound of the Invention, the patient response to the Compound of the Invention was analyzed based on biomarker status. […] A significant improvement in survival was detected for patients with nuclear β-Catenin localization compared with patients having β-catenin localized to the cell membrane, HR=0.043, p value <0.001. As further evidence, in an in vitro study screening a panel of cancer cells, the cell lines with nuclear β-Catenin show a lower IC50 for the Compound of the Invention. […] Thus, STAT3 activation is involved in nuclear β-catenin regulation. […]"}, "[1]": {"assay": "Phase 1 extension study of higher strength capsule (DP2A): pharmacokinetics", "format": "in vivo", "settings": "human, plasma, oral, 500 mg; for AUC(0-t): read-out: AUC0-24", "text": "However, with the higher strength capsules, we observed worsening gastrointestinal adverse effects including nausea, vomiting, and diarrhea in patients.\nAdditional studies were run using an oral formulation of the Compound of the Invention, specifically a higher strength capsule formulation (DP2A). As described herein, the Compound of the Invention blocks cancer stem cell (CSC) self-renewal and induces cell death in CSC as well as non-stem cancer cells by inhibiting Stat3, β-catenin, and Nanog pathways, and has shown potent anti-tumor and anti-metastatic activities pre-clinically. […] The studies described herein were designed as a phase 1 extension study to evaluate a formulation designed for pivotal trials to determine pharmacokinetics (PK) in patients with advanced cancer.\nOn Day 1, patients received a single 500 mg dose of an oral administration formulation of the Compound of the Invention (DP1). On Day 4 and Day 8, a higher strength capsule designed for pivotal trials (DP2A) was given with fasting then fed conditions. DP2A was then administered daily until disease progression or unacceptable toxicity. Endpoints were safety, PK and preliminary anticancer activity."}, "[2]": {"tested_on": "solid tumor that is metastatic, unresectable, or recurrent", "assay": "Phase I dose escalation trial: preliminary antitumor activity", "format": "in vivo, human"}, "CD44^high cells (FaDu)": {"tested_on": "CD44^high cells (FaDu)", "assay": "CD44high sphere growth", "format": "cell-based", "settings": "FACS-isolated from FaDu, sphere culture, five days of treatment, FIG. 5", "procedure": "CD44^high cells were isolated by FACS (FaDu) and were cultured in the absence of attachment and serum for 5 days to form primary spheres. Primary spheres were then dissociated in Accumax (eBioscience, San Diego, Calif.) to single cells, and were cultured as above for 72 hours before the addition of the indicated concentrations of therapeutic agents. After five days of treatment, representative sphere images were captured.\nCD44^high cells were isolated by FACS (FaDu) and their growth was blocked by a Compound of the Invention (FIG. 5)."}, "colorectal cancer (CRC)": {"tested_on": "colorectal cancer (CRC)", "assay": "Survival of treated CRC patients by biomarker status or exposure", "format": "in vivo, human", "text": "FIG. 6A depicts the relationship between Progression Free Survival (PFS) and exposure of a Compound of the Invention in colorectal cancer (CRC) patients. […] FIG. 6B depicts the overall survival (OS) in evaluable CRC patients. OS of evaluable CRC patients treated with a Compound of the Invention (defined as ≥4 weeks of Compound of the Invention, 80% compliance) compared with historical controls [Cetuximab for the treatment of colorectal cancer, 2007, N. Engl. J. Med. 357 2040-2048]. FIG. 6C depicts PFS in evaluable CRC patients. PFS of evaluable CRC patients treated with a Compound of the Invention (defined as ≥4 weeks of Compound of the Invention, 80% compliance) compared historical controls (Open-Label Phase III Trial of Panitumumab Plus Best Supportive Care Compared with Best Supportive Care Alone in Patients with Chemotherapy-Refractory Metastatic Colorectal Cancer, 2007, J. Clin. Onc. 25: 1658-1665].\nUnderstanding the clinical relevance of the cancer stemness markers and identifying their predictive response to the Compound of the Invention is used herein to assist clinical development by selecting patients that will most likely to derive clinical benefit. In some embodiments, the methods provided herein use one or more well-known cancer stemness marker(s), such as, for example, the expression of p-STAT3 and/or other cancer stem cell related proteins such as β-catenin and NANOG. All these proteins can be easily detected using any of a variety of art-recognized techniques. In some embodiments, the cancer sternness marker is detected with immunohistochemistry with antibodies. Using the archival tissue samples collected from the phase I trial with the Compound of the Invention, the patient response to the Compound of the Invention was analyzed based on biomarker status. […] A significant improvement in survival was detected for patients with nuclear β-Catenin localization compared with patients having β-catenin localized to the cell membrane, HR=0.043, p value <0.001. As further evidence, in an in vitro study screening a panel of cancer cells, the cell lines with nuclear β-Catenin show a lower IC50 for the Compound of the Invention. […] Thus, STAT3 activation is involved in nuclear β-catenin regulation. In addition, β-catenin status is a biomarker for predicting responsiveness of CRC patients to the Compound of the Invention.\nCRC patient's archival tumor tissue samples were analyzed through immunohistochemistry (IHC) using labeled antibodies against phosphorylated STAT3 (p-STAT3). […] For instance, 40% of the patients with high p-STAT3 levels before treatment survived longer than 100 weeks whereas only 10% of those with low or no p-STAT3 levels before treatment survived beyond 100 weeks. This further confirms that the Compound of the Invention downregulates that STAT3 pathway, and that the STAT3 pathway is implicated in colorectal cancers.\nCRC patient's archival tumor tissue samples were analyzed through immunohistochemistry (IHC) using labeled antibodies against β-catenin. […] For instance, close to 40% of the patients with high nuclear β-catenin levels before treatment survived longer than 100 weeks whereas none of those with high levels of membranous β-catenin survived beyond 25 weeks. This further confirms that the Compound of the Invention disrupts or somehow modulates the β-catenin function, and that the β-catenin pathway is implicated in colorectal cancers."}, "[3]": {"settings": "Patient 0053, single 500 mg dose - fed"}, "[4]": {"settings": "Patient 0054, single 500 mg dose - fed"}, "[5]": {"settings": "Patient 0061, single 500 mg dose - fed"}, "[6]": {"settings": "Patient 0070, single 500 mg dose - fed"}, "[7]": {"settings": "Total Daily Dose 20 mg, Colon adencarcinoma"}, "[8]": {"settings": "Total Daily Dose 400 mg, Colon adenocarcinoma"}, "[9]": {"settings": "Total Daily Dose 400 mg, Ovarian carcinoma"}, "[10]": {"settings": "Total Daily Dose 500 mg, Breast carcinoma (triple negative)"}}, "note": "Several values for one entry are separate records, joined by “and”; a condition that tells them apart may be missing. Identical values can stand only once. Like-named read-outs stand apart in the source and are kept apart here."}
{"molecule": "CC(=O)c1cc2c(o1)C(=O)c1ccccc1C2=O", "note": "[Compound 1, 2-acetylnaphtho[2,3-b]furan-4,9-dione]", "values": [{"measurement": "IC50 in cell lines with nuclear β-Catenin", "setting": "panel of cancer cells", "value": "lower IC50"}, {"measurement": "Cmax", "setting": "[1]; [3]", "value": 6.61, "unit": "µM"}, {"measurement": "AUC(0-t)", "setting": "[1]; [3]", "value": 79.6, "unit": "µM·h"}, {"measurement": "Cmax", "setting": "[1]; [4]", "value": 6.25, "unit": "µM"}, {"measurement": "AUC(0-t)", "setting": "[1]; [4]", "value": 49.8, "unit": "µM·h"}, {"measurement": "Cmax", "setting": "[1]; [5]", "value": 1.54, "unit": "µM"}, {"measurement": "AUC(0-t)", "setting": "[1]; [5]", "value": 10.6, "unit": "µM·h"}, {"measurement": "Cmax", "setting": "[1]; [6]", "value": 2.25, "unit": "µM"}, {"measurement": "AUC(0-t)", "setting": "[1]; [6]", "value": 20.1, "unit": "µM·h"}, {"measurement": "antitumor activity in a kidney with colon cancer lesions", "setting": "[2]; 20 mg QD, very high concentration of the drug in urine", "value": "signs of particularly potent antitumor activity"}, {"measurement": "regression of a colon cancer metastatic lesion to kidney", "setting": "[2]; Patient 0001", "value": "complete regression"}, {"measurement": "disease control (disease stabilization and tumor regression), patients evaluable for tumor response", "setting": "[2]; Phase I, tumors refractory to chemotherapies", "value": 65, "unit": "%"}, {"measurement": "Weeks on Study", "setting": "[2]; [7]", "value": 76, "unit": "weeks"}, {"measurement": "regression", "setting": "[2]; [7]", "value": 22, "unit": "%"}, {"measurement": "Weeks on Study", "setting": "[2]; Total Daily Dose 80 mg, Head and fleck carcinoma", "value": 17, "unit": "weeks"}, {"measurement": "Weeks on Study", "setting": "[2]; Total Daily Dose 320 mg, Colon adenocarcinoma (two patients)", "value": "24 weeks and 12 weeks"}, {"measurement": "CEA", "setting": "[2]; [8]", "value": 50, "unit": "%"}, {"measurement": "Weeks on Study", "setting": "[2]; [8]", "value": 11, "unit": "weeks"}, {"measurement": "Weeks on Study", "setting": "[2]; Total Daily Dose 400 mg, Gastric adenocarcinoma", "value": 19, "unit": "weeks"}, {"measurement": "CA125", "setting": "[2]; [9]", "value": "CA125 normalization"}, {"measurement": "Weeks on Study", "setting": "[2]; [9]", "value": 16, "unit": "weeks"}, {"measurement": "Weeks on Study", "setting": "[2]; [10]", "value": 29, "unit": "weeks"}, {"measurement": "outcome after surgical resection of remaining hollowed lesion", "setting": "[2]; [10]", "value": "resected; patient disease free)"}, {"measurement": "Weeks on Study", "setting": "[2]; Total Daily Dose 800 mg, Chondrosarocoma", "value": 13, "unit": "weeks"}, {"measurement": "Weeks on Study", "setting": "[2]; Total Daily Dose 1000 mg, Adrenocarticoid carcinoma", "value": 17, "unit": "weeks"}, {"measurement": "Weeks on Study", "setting": "[2]; Total Daily Dose 1000 mg, Colon: adencarcinoma", "value": 16, "unit": "weeks"}, {"measurement": "Weeks on Study", "setting": "[2]; Total Daily Dose 1400 mg, Melanona", "value": 16, "unit": "weeks"}, {"measurement": "CD44^high cells growth", "setting": "CD44^high cells (FaDu)", "value": "blocked"}, {"measurement": "patients surviving beyond 25 weeks", "setting": "colorectal cancer (CRC); CRC patients (N=13) with high levels of membranous β-catenin", "value": "none"}, {"measurement": "patients surviving longer than 100 weeks", "setting": "colorectal cancer (CRC); CRC patients (N=13) with high nuclear β-catenin levels before treatment", "value": "~40", "unit": "%"}, {"measurement": "patients surviving longer than 100 weeks", "setting": "colorectal cancer (CRC); CRC patients (N=13) with high p-STAT3 levels before treatment", "value": 40, "unit": "%"}, {"measurement": "patients surviving beyond 100 weeks", "setting": "colorectal cancer (CRC); CRC patients (N=13) with low or no p-STAT3 levels before treatment", "value": 10, "unit": "%"}, {"measurement": "Progression Free Survival (PFS), plasma concentrations above 2.0 uM for greater than 4 hours versus not reaching that exposure", "setting": "colorectal cancer (CRC); CRC patients, FIG. 6A", "value": "statistically significant difference"}, {"measurement": "survival, high level of p-STAT3 or NANOG versus low or negative levels", "setting": "colorectal cancer (CRC); CRC patients, phase I archival tissue", "value": "trend of increased survival"}, {"measurement": "survival HR, nuclear β-Catenin localization versus β-catenin localized to the cell membrane", "setting": "colorectal cancer (CRC); CRC patients, phase I archival tissue, p value <0.001", "value": 0.043}]}
